For this assay, the system named is glaucoma patients. As to the kind of experiment: IOP, pulsatile blood flow, visual performance, relative scotomas and stability of differential light sensitivity in glaucoma patients under long-term topical treatment. In kind it is in vivo, human. From the text: Elevated IOP is a risk factor associated with the development of glaucoma but it is not the disease itself. The recent recognition that a large percentage of glaucoma patients never experience elevated IOP has increased the possibility that the ocular hypotensive drug has the undesirable action of decreasing ocular blood flow. This possibility has been supported by numerous studies and confirmed in the prolonged longitudinal studies on individual glaucoma patents (Table 1). With increased ocular blood flow, the vision improved whilst with a drug having equal ocular hypotensive action, but causing decreased ocular blood flow run vision worsened. […] The Intraocular pressure and pulse form. The […] pneumatic digitized tonometer was used to make continuous recordings of the intraocular pressure and its pulsatile character. This recording system provides the steady state IOP and the form of the IOP pulse with an accuracy equal to a manometric recording. The pulsatile ocular blood flow is evaluated from the amplitude of the individual pulses using the known pressure/volume relation of living human eyes. […]'Brien V., Silver, D. M., Non-Invasive Measurement of Pulsatile Ocular Blood Flow in the Human […] and […], Amsterdam (1989).

Where [1] appears, read: difference clonidine treatment minus timolol treatment, five glaucoma patients.
[2] abbreviates: five glaucoma patients, topical 0.25% clonidine b.i.d., years 6, 7 and 8 (after timolol).
The mark [3] stands for this setting: difference timolol treatment minus prior, five glaucoma patients.
Where [4] appears, read: five glaucoma patients, topical timolol 0.25-0.50% b.i.d., years 3, 4 and 5.

As for `Clc1cccc(Cl)c1N=C1NCCN1` [Clonidine, clonidine], under setting [1], the “IOP, Clon-Timolol” value is given as −0.8 ± 0.5 mmHg; the “PBF, Clon-Timolol” value amounted to 192 ± 71 µL/min; the “Vis. P. (visual performance), Clon-Timolol” value stood at 31 ± 9. Further, under setting [2], the IOP stood at 20.0 ± 1.0 mmHg, the PBF is 557 ± 30 µL/min, the “Rel. Scot (relative scotomas)” value was 3 and the “Vis. P. (visual performance)” value turned out to be 564 ± 30. The “Stability of the differential light sensitivity, Clon-Timolol” value (number of the five glaucoma patients, clonidine treatment versus timolol treatment) is 5 improved. Moreover, the “Stability of the differential light sensitivity” value (number of the five glaucoma patients, topical 0.25% clonidine b.i.d., years 6, 7 and 8) is given as 5 improved.
As to `CC(C)(C)NC[C@H](O)COc1nsnc1N1CCOCC1` [Timolol, timolol], under setting [3], the “IOP, Tim-Prior” value was −3.1 ± 0.6 mmHg; the “PBF, Tim-Prior” value is -177 ± 33 µL/min; the “Vis. P. (visual performance), Tim-Prior” value is −116 ± 2. In addition, under setting [4], the IOP turned out to be 20.8 ± 0.6 mmHg, the PBF is 365 ± 20 µL/min, the “Rel. Scot (relative scotomas)” value came to 3 and the “Vis. P. (visual performance)” value was found to be 533 ± 20. Further, the “Stability of the differential light sensitivity, Tim-Prior” value (number of the five glaucoma patients, timolol treatment versus prior) is 5 decreased. The “Stability of the differential light sensitivity” value (number of the five glaucoma patients, topical timolol 0.25-0.50% b.i.d., years 3, 4 and 5) is on record as 5 decreased.

Values taken from patent US20120101167A1, “Treatment of ocular and cerebral ischemia” (priority 2010, published 2012).
